In PMC9112550, “Optimization of the antimicrobial peptide Bac7 by deep mutational scanning” (BMC Biology, 2022):
Where “and” joins values, the source holds several entries; their conditions need not be identical. Equal entries are not always repeated. Where no end group is shown, it is not given here.

Legend:
bacterial membranes = details: cited from earlier work
Experimental: We next investigated whether an increased propensity to damage membranes could be the reason for the improved antimicrobial activity of Bac7PS. Membrane damage is the most frequent way AMPs kill bacteria and is often considered the reason for high toxicity against eukaryotic cells. […] Consequently, we investigated if Bac7PS had acquired a tendency to damage membranes, which could imply a greater risk for systemic human applications. Cell damage was assessed by measuring leakage of green fluorescent protein (GFP), ex ...

bacteria = details: cited from earlier work
Excerpt: One of the most intensively researched proline-rich AMPs is bactenecin-7 (Bac7). It is a 60 amino acid long linear peptide that was first isolated from bovine neutrophils. […] Measuring the antimicrobial activity of heavily mutated variants was valuable to determine the sequence-activity relationship of Bac7_1-23 because (i) the activity of specific amino acid res ... || Bac7PS excelled over Bac7_1-23 in terms of antimicrobial activity against clinical isolates including MDR bacteria and a decreased dependency on the SbmA transporter (Fig. 4a; Table 2). […] We mainly attribute the activity gain to the increased ability to penetrate membranes, which was accompanied by a slight increase in membrane damage at higher concentrations compared to Bac7_1-23 (Fig. 4b; Additional file 1 ...

HEK 293 cells = assay type: cell-based, human; details: MTT, 24 h, 37°C, triplicates, read-out: Toxicity IC50
Experimental: (§1) HeLa epithelioid cervix carcinoma cells (originally purchased: 93021013, Sigma Aldrich) and HEK 293 human embryonic kidney (originally purchased: 85120602, Sigma Aldrich) were routinely cultivated in Dulbecco’s MEM high glucose (DMEM, with L-glutamine, without phenol red, 1-26P32, Bioconcept, Allschwil, CH), supplemented with 10% fetal bovine serum (heat inactivated, sterile filtered, F9665, Sigma Aldrich) and 100 IU ml^−1/100 μg ml^−1 Penicillin/streptomycin (4-01F00, Bioconcept) at 37°C with 5% CO2. Cells were split at a confluency of ≤ 90% (every 3 to 4 days) and maintained for max. 10 passages before a fresh aliquot of cells were seeded. […] The cell concentration was determined using a Countess 2 device (Thermo Fisher Scientific) and approx. 5000 (HeLa) or 25,000 (HEK 293) cells were seeded into wells of a 96-well plate (F-bottom, PS, 655180, Greiner) together with 100 μl DMEM. […] For each dilution series, the IC50 value was determined by computing a weighted n-parameters logistic regression using the “nplr” package in R (https://CRAN.R-project.org/package=nplr). […]

E. coli TOP10 [1] = test: Membrane damage assay in MHB II (GFP loss, PI uptake); assay type: cell-based; details: at the MIC up to 8-fold higher concentrations, n = 3
mouse red blood cells = test: Hemolysis assay; assay type: cell-based; details: 1 h, 37°C, DPBS, relative to Triton-X100 lysis control, triplicates
Experimental: Mouse blood was obtained from the ETH Phenomics Center. The erythrocytes were isolated by centrifugation at 500 × g for 10 min and removal of the blood plasma. The cells were washed three times by gently resuspending them in an equal volume of DPBS followed by centrifugation. After the last resuspension, the cells were diluted 1:50 in DPBS. For the hemolysis assay, a log2-serial dilution of each peptide was prepared as described for the MIC but using DPBS and 96-well plates (U-bottom, PP, 650201, Greiner) with a final volume of 100 μl. As lysis control, 2.5% Triton-X100 in DPBS was used in well 10, well 11 served as non-treated control (no peptide added), and well 12 as blank. To each well of the dilution plate, 100 μl of the red blood cells suspension was added. The plate was incubated for 1 h at 37°C. After incubation, the plate was centrifuged at 500 × g for 10 min and 100 μl of the supernatant was transferred to a clean 96-well plate (F-bottom, PS, 655101, Greiner). The absorbance was measured at 540 nm using an Infinite M1000 PRO plate reader (Tecan) and corrected by the measurements from the untreated wells. The lysis of each peptide concentration was expressed relative to the lysis control (set as 100% lysis). The hemolysis assay was performed in biological triplicates.

E. coli BW25113 ΔsbmA = assay type: cell-based
Experimental: (§2) Bacterial cells were grown in cation-adjusted Mueller Hinton Broth (MHB II) overnight to stationary phase. The cultures were then supplemented with 200 g l^−1 glycerol, aliquoted, and frozen at −80°C. […] The purified peptides were thawed and the concentration was determined by RP-HPLC as described before. The peptides were diluted with sterile water to 4-fold the desired assays starting concentration and to a final volume of 50 μl. […] The first well of each MIC dilution series was filled with 20 μl of 2-fold concentrated MHB II, wells 2–11 with 20 μl of MHB II, and well 12 with 40 μl MHB II (sterility control). Next, 20 μl of the peptide dilution was added to the first well, mixed, and a log2-serial dilution was performed from wells 1 to 10 (20 μl transfer volume). Well 11 served as growth control (i.e., no peptide added). In the last step, 20 μl of the bacterial cell suspension was added to wells 1–11 either using the pipetting robot (E. coli TOP10, BW25113, BW25113 ΔsbmA, and ATCC 25922) or by manual pipetting (E. coli clinical isolates). The plates were sealed airtight and incubated for 18 h without shaking at 37°C before reading the OD using an Infinite 200 PRO plate reader (Tecan, Männedorf, CH). The MIC value corresponded to the concentration at which no growth of the bacterial strain was observed (< 5% of the OD value of the growth control) and was evaluated using a custom-written script in the programming language R. MIC values of E. coli TOP10, BW25113, BW25113 ΔsbmA, and ATCC 25922 were determined at least in biological triplicates. All MIC experiments were determined in technical replicate.

E. coli TOP10 [2] = assay type: cell-based; details: MHB II, 18 h, 37°C, averaged (n>3), <5% of OD of growth control
Experimental: as §2

E. coli BW25113 = assay type: cell-based; details: E. coli BW25113 parental strain; MHB II; 18 h, 37°C; averaged (n>3)
Experimental: as §2

E. coli ATCC 25922 = assay type: cell-based; details: E. coli ATCC 25922 quality control strain; MHB II; 18 h, 37°C; averaged (n>3)
Experimental: as §2

[3] = test system: E. coli clinical isolates; assay type: cell-based; details: clinical isolates of E. coli (n=45) including MDR (ESBL, CRE); MHB II; 18 h, 37°C
Experimental: as §2

HeLa cells = test: In vitro toxicity assay (MTT), HeLa; assay type: cell-based, human
Experimental: as §1

For “Bac7: 60 amino acid long linear peptide first isolated from bovine neutrophils”, the “damage of bacterial membranes at its MIC” value (bacterial membranes) is listed as “not damage bacterial membranes” and the “activity against species of Gram-negative Enterobacteriaceae” value (bacteria) is listed as “high activity”.

With RRIRPRPPRLPRPRPRPLPFPRP [Bac7_1-23] the IC50 (HEK 293 cells) was 1.97 mM, the PI-positive cells (E. coli TOP10 [1]) was ~ 1% and the “cells that retained GFP levels” value (E. coli TOP10 [1]) was ~ 99%. For the same substance, the “Hemolysis of mouse red blood cells” value (mouse red blood cells; 1xMIC (MIC measured for E. coli ATCC 25922)) was < 4% and 2.1%, the “Hemolysis of mouse red blood cells” value (mouse red blood cells; 4xMIC (MIC measured for E. coli ATCC 25922)) was < 7% and 6.4% and the “antimicrobial activity against the SbmA transporter knockout strain” value (E. coli BW25113 ΔsbmA) was “largely inactive”. It also gave an MIC (E. coli BW25113 ΔsbmA; MHB II, 18 h, 37°C, averaged (n>3)) of 52.1 µM, an MIC (E. coli TOP10 [2]) of 4.6 µM and an MIC (E. coli BW25113) of 7.4 µM. For the same substance, the MIC (E. coli ATCC 25922) was 2.8 µM, the MIC50 [3] was 7.5 µM and the IC50 (HeLa cells; HeLa, MTT, 24 h, 37°C, triplicates) was 1.46 mM. The “therapeutic index (TI), Toxicity/MIC” value (HeLa cells; IC50 HeLa divided by MIC50 from clinical isolates) was 195.
